Assay results taken from EP4772510A2, “BENZAZEPINONE COMPOUND AND USE THEREOF” (HANGZHOU BIO-SINCERITY PHARMA-TECHCO., LTD., priority 2023, dated 2025).

What was measured:
U937 cells = assay: Inhibition of TNF-α-induced necroptosis of U937 cells (CCK-8 assay); assay type: cell-based, human; conditions: 18 h
Procedure, shortened: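 U937 cells (3.6 × 10^4/well) rested 6 h, then exposed to TNF-α 20 ng/mL, BV6 2 µM and Z-VAD-FMK 20 µM plus compound (8-point 3-fold series, 1000–0.46 nM, duplicate) for 18 h. Viability by CCK-8, absorbance at 450 nm after 2-4 h at 37 °C; EC50 calculated.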

in vivo = conditions: rat
Method: (§1) Example 59: Pharmacokinetic Experiment of Compounds in SD Rats
(§2) SD rats, male, 6-8 weeks old, purchased from Zhejiang Vital River Laboratory Animal Technology Co., Ltd., production license No.: SCXK (Zhejiang) 2019-0001. The animals were maintained in an SPF-grade animal room of Hangzhou Bio-Sincerity Pharma-Tech Co., Ltd., with the experimental animal use license No. of SYXK (Zhejiang) 2021-0014. The animals were used after being acclimatized for at least one week. All experiments were performed in strict compliance with the regulations on experimental animals.
(§3) Four hours after administration, food was provided.
(§4) After administration to SD rats, about 300 µL of blood was collected from the orbit of each animal and anticoagulated with EDTA-Na2. […] The collected blood was placed in an ice bath and centrifuged within 1 h to separate plasma (centrifugation conditions: 2000× g, 10 min, 4 °C). 50 µL of plasma sample was taken, subjected to protein precipitation, and then assayed by UHPLC-MS. The assay data were analyzed and processed using WinNonLin8.1 pharmacokinetic software to obtain pharmacokinetic parameters.

[1] = Pharmacokinetic experiment in SD rats; conditions: p.o, 5 mg/kg vs i.v, 0.5 mg/kg
Method: as §1, §2, §3, §4

[2] = Homo sapiens, U-937, TNF-α 20 ng/mL + BV6 2 µM + Z-VAD-FMK 20 µM
[3] = male, SD, plasma, intravenous, 0.5 mg/kg
[4] = male, SD, plasma, oral, 5 mg/kg
[5] = TNF-α 20 ng/mL + BV6 2 µM + Z-VAD-FMK 20 µM

Compound | EC50 (U937 cells; [2]) [nM] | AUC(0-t) (in vivo; [3]) [ng·h/mL] | Cmax (in vivo; [3]) [ng/mL] | clearance (in vivo; [3]) [mL/min/kg] | half-life (in vivo; [3]) [h] | AUC(0-t) (in vivo; [4]) [ng·h/mL] | CL/F (in vivo; [4]) [mL/min/kg] | Cmax (in vivo; [4]) [ng/mL] | half-life (in vivo; [4]) [h] | Fabs (%) [1] [%] | AUC(0-t) (in vivo; in vivo, iv, 0.5 mg/kg) [ng·h/mL] | Cmax (in vivo; in vivo, iv, 0.5 mg/kg) [ng/mL] | clearance (in vivo; in vivo, iv, 0.5 mg/kg) [mL/min/kg] | half-life (in vivo; in vivo, iv, 0.5 mg/kg) [h] | AUC(0-t) (in vivo; in vivo, po, 5 mg/kg) [ng·h/mL] | CL/F (in vivo; in vivo, po, 5 mg/kg) [mL/min/kg] | Cmax (in vivo; in vivo, po, 5 mg/kg) [ng/mL] | half-life (in vivo; in vivo, po, 5 mg/kg) [h] | EC50 (U937 cells; [5]) [nM]
CN1C(=O)[C@@H](NC(=O)c2nnc(Cc3ccccc3)[nH]2)COc2ccccc21 [GSK2982772, (S)-5-benzyl-N-(5-methyl-4-oxo-2,3,4,5-tetrahydrobenzo[b][1,4]oxazepin-3-yl)-4H-1,2,4-triazole-3-carboxamide, reference compound] | 10 to 100 | 5560 | 4320 | 1.5 | 3.28 | 21700 ± 6530 | 4.03 ± 1.05 | 5820 ± 1210 | 3.06 ± 0.41 | 39.13 ± 11.8 |  |  |  |  |  |  |  |  | 
Cn1cc(C#Cc2cc3c4c(c2)CCN4C(=O)C(NC(=O)c2ncn(Cc4c(F)cccc4F)n2)CC3)cn1 (stereo not drawn) [III-1, 1-(2,6-difluorobenzyl)-N-(9-((1-methyl-1H-pyrazol-4-yl)ethynyl)-4-oxo-1,2,3,4,6,7-hexahydroazepino[3,2,1-hi]indol-3-yl)-1H-1,2,4-triazole-3-carboxamide] | < 5 |  |  |  |  |  |  |  |  | 111.92 ± 11.87 | 1980 ± 204 | 1430 ± 181 | 5.54 ± 2.45 | 2.38 ± 1.76 | 22600 ± 2370 | 3.7 ± 0.39 | 4100 ± 520 | 2.94 ± 0.16 | 
Cn1cc(C#Cc2cc3c4c(c2)CCN4C(=O)C(NC(=O)c2ncn(Cc4cc(F)ccc4F)n2)CC3)cn1 (stereo not drawn) [III-10, 1-(2,5-difluorobenzyl)-N-(9-((1-methyl-1H-pyrazol-4-yl)ethynyl)-4-oxo-1,2,3,4,6,7-hexahydroazepino[3,2,1-hi]indol-3-yl)-1H-1,2,4-triazole-3-carboxamide] | < 5 |  |  |  |  |  |  |  |  | 51.37 ± 3.03 | 5340 ± 1330 | 1940 ± 319 | 1.6 ± 0.39 | 2.37 ± 0.64 | 27700 ± 1560 | 3.01 ± 0.18 | 4660 ± 132 | 2.57 ± 0.69 | 
Cn1cc(C#Cc2cc3c4c(c2)CCN4C(=O)C(NC(=O)c2ncn(Cc4ccc(F)c(F)c4)n2)CC3)cn1 (stereo not drawn) [III-12, 1-(3,4-difluorobenzyl)-N-(9-((1-methyl-1H-pyrazol-4-yl)ethynyl)-4-oxo-1,2,3,4,6,7-hexahydroazepino[3,2,1-hi]indol-3-yl)-1H-1,2,4-triazole-3-carboxamide] | 5 to 10 |  |  |  |  |  |  |  |  | 64.54 ± 10.10 | 8830 ± 1290 | 1300 ± 23.2 | 0.91 ± 0.18 | 5.78 ± 2.23 | 60400 ± 9300 | 1.39 ± 0.2 | 7330 ± 781 | 3.19 ± 0.52 | 
O=C(NC1CCc2cc(C#Cc3cnn(C(F)F)c3)cc3c2N(CC3)C1=O)c1ncn(Cc2c(F)cccc2F)n1 (stereo not drawn) [III-17, 1-(2,6-difluorobenzyl)-N-(9-((1-(difluoromethyl)-1H-pyrazol-4-yl)ethynyl)-4-oxo-1,2,3,4,6,7-hexahydroazepino[3,2,1-hi]indol-3-yl)-1H-1,2,4-triazole-3-carboxamide] |  |  |  |  |  |  |  |  |  |  |  |  |  |  |  |  |  |  | < 5
O=C(NC1CCc2cc(C#Cc3cnn(C(F)F)c3)cc3c2N(CC3)C1=O)c1ncn(Cc2cc(F)ccc2F)n1 (stereo not drawn) [III-19, 1-(2,5-difluorobenzyl)-N-(9-((1-(difluoromethyl)-1H-pyrazol-4-yl)ethynyl)-4-oxo-1,2,3,4,6,7-hexahydroazepino[3,2,1-hi]indol-3-yl)-1H-1,2,4-triazole-3-carboxamide] | 5 to 10 |  |  |  |  |  |  |  |  | 121.33 ± 40.32 | 703 ± 191 | 662 ± 110 | 12.2 ± 3.04 | 1.37 ± 0.2 | 8130 ± 3570 | 10.3 ± 3.12 | 1480 ± 545 | 2.96 ± 0.69 | 
O=C(NC1CCc2cc(C#Cc3cnn(C(F)F)c3)cc3c2N(CC3)C1=O)c1ncn(Cc2ccccc2F)n1 (stereo not drawn) [III-21, N-(9-((1-(difluoromethyl)-1H-pyrazol-4-yl)ethynyl)-4-oxo-1,2,3,4,6,7-hexahydroazepino[3,2,1-hi]indol-3-yl)-1-(2-fluorobenzyl)-1H-1,2,4-triazole-3-carboxamide] | < 5 |  |  |  |  |  |  |  |  | 97.15 ± 40.17 | 651 ± 66.4 | 619 ± 65.8 | 12.8 ± 1.27 | 1.19 ± 0.1 | 6250 ± 2790 | 14.9 ± 6.92 | 1280 ± 509 | 2.66 ± 0.69 | 
C#Cc1cc2c3c(c1)CCN3C(=O)C(NC(=O)c1ncn(Cc3c(F)cccc3F)n1)CC2 (stereo not drawn) [III-26, 1-(2,6-difluorobenzyl)-N-(9-ethynyl-4-oxo-1,2,3,4,6,7-hexahydroazepino[3,2,1-hi]indol-3-yl)-1H-1,2,4-triazole-3-carboxamide] | < 5 |  |  |  |  |  |  |  |  | 51.2 ± 3.29 | 550 ± 34.5 | 896 ± 158 | 15.2 ± 0.98 | 0.44 ± 0.03 | 2810 ± 177 | 29.6 ± 1.95 | 1370 ± 389 | 3.98 ± 2.49 | 
N-(9-((1-(difluoromethyl)-1H-pyrazol-4-yl)ethynyl)-4-oxo-1,2,3,4,6,7-hexahydroazepino[3,2,1-hi]indol-3-yl)-1-(4-methylbenzyl)-1H-1,2,4-triazole-3-carboxamide [III-25] |  |  |  |  |  |  |  |  |  |  |  |  |  |  |  |  |  |  | 10 to 100
